According to patent publication US20100099694A1, “2-ANILINO-4-HETEROARYL PYRIMIDINE DERIVATIVES, AND PREPARATION THEREOF AS MEDICAMENTS, PHARMACEUTICAL COMPOSITIONS, AND IN PARTICULAR IKK INHIBITORS” (SANOFI-AVENTIS, priority 2007, published 2010):

**Q.** For `O=S(=O)(c1ccc(Nc2nccc(N3CCc4cc(F)ccc43)n2)cc1)N(CCN1CCCC1)C1CCNCC1` [Example 1, 4-[4-(5-Fluoro-2,3-dihydroindol-1-yl)pyrimidin-2-ylamino]-N-piperidin-4-yl-N-(2-pyrrolidin-1-yl-ethyl)benzenesulphonamide], which melting point is on record?
**A.** 269.5 °C

**Q.** With `O=S(=O)(c1ccc(Nc2nccc(N3CCc4cc(F)ccc43)n2)cc1)N(CCN1CCCC1)C1CCOCC1` [Example 8, 4-[4-(5-Fluoro-2,3-dihydroindol-1-yl)pyrimidin-2-ylamino]-N-(2-pyrrolidin-1-ylethyl)-N-(tetrahydropyran-4-yl)benzenesulphonamide] as the compound, how does the melting point read?
**A.** 100 °C

**Q.** For `Cn1cccc1CN1CCC(N(CCN2CCCC2)S(=O)(=O)c2ccc(Nc3nccc(N4CCc5cc(F)ccc54)n3)cc2)CC1` [Example 5, 4-[4-(5-Fluoro-2,3-dihydroindol-1-yl)-pyrimidin-2-ylamino]-N-[1-(1-methyl-1H-pyrrol-2-ylmethyl)piperidin-4-yl]-N-(2-pyrrolidin-1-ylethyl)benzenesulphonamide], which melting point is on record?
**A.** 94 °C

**Q.** For `O=S(=O)(c1ccc(Nc2nccc(N3CCc4cc(F)ccc43)n2)cc1)N(CCN1CCCC1)C1CCN(CC(F)(F)F)CC1` [Example 7, 4-[4-(5-Fluoro-2,3-dihydroindol-1-yl)-pyrimidin-2-ylamino]-N-(2-pyrrolidin-1-ylethyl)-N-[1-(2,2,2-trifluoroethyl)piperidin-4-yl]benzenesulphonamide], which melting point is on record?
**A.** 139.3 °C

**Q.** Which melting point does the source give for `O=S(=O)(c1ccc(Nc2nccc(N3CCc4cc(F)ccc43)n2)cc1)N(CCN1CCCC1)C1CCN(CCC(F)(F)F)CC1` [Example 6, 4-[4-(5-Fluoro-2,3-dihydroindol-1-yl)-pyrimidin-2-ylamino]-N-(2-pyrrolidin-1-ylethyl)-N-[1-(3,3,3-trifluoropropyl)piperidin-4-yl]benzenesulphonamide] here?
**A.** 147 °C

**Q.** Which melting point does the source give for `O=S(=O)(c1ccc(Nc2nccc(N3CCc4cc(F)ccc43)n2)cc1)N(CCN1CCCC1)C1CCN(C2CC2)CC1` [Example 2, N-(1-Cyclopropylpiperidin-4-yl)-4-[4-(5-fluoro-2,3-dihydroindol-1-yl)pyrimidin-2-ylamino]-N-(2-pyrrolidin-1-ylethyl)benzenesulphonamide] here?
**A.** 215.4 °C

**Q.** For `O=S(=O)(c1ccc(Nc2nccc(N3CCc4cc(F)ccc43)n2)cc1)N(CCN1CCCC1)C1CCN(Cc2ccsc2)CC1` [Example 4, 4-[4-(5-Fluoro-2,3-dihydroindol-1-yl)pyrimidin-2-ylamino]-N-(2-pyrrolidin-1-ylethyl)-N-(1-thiophen-3-ylmethylpiperidin-4-yl)benzenesulphonamide], which melting point is on record?
**A.** 140 °C

**Q.** With `O=S(=O)(c1ccc(Nc2nccc(N3CCc4cc(F)ccc43)n2)cc1)N(CCN1CCCC1)C1CCN(CCCC(F)(F)F)CC1` [Example 3, 4-[4-(5-Fluoro-2,3-dihydroindol-1-yl)-pyrimidin-2-ylamino]-N-(2-pyrrolidin-1-ylethyl)-N-[1-(4,4,4-trifluorobutyl)piperidin-4-yl]benzenesulphonamide] as the compound, how does the melting point read?
**A.** 198 °C
